{"source": "patent US20060257466A1", "about": "“Administration of macrophage targeted formulations of compounds which modulate cholesterol-metabolizing enzymes for treatment of atherosclerosis” (priority 2005, published 2006)", "tested_on": "J774 macrophages", "experiment": "Cholesterol efflux in vivo (macrophage cholesterol export)", "conditions": "mice injected with [3H]-cholesterol-loaded J774 cells; 20 μg, tail vein; versus PBS vehicle; FIG. 1", "protocol": "FIG. 1 is a line graph comparing in vivo macrophage cholesterol export in mice treated with a liposomal formulation of the ACAT inhibitor, Sandoz 58-035, at an estimated dose of 20 μg (open circles), mice treated with 20 μg of free non-liposome formulated Sandoz 58-035 (closed circles), and mice administered phosphate buffered saline (closed triangles).\nFor non-liposome formulated Sandoz 58-035 experiments, 10 ul of the stock solution (2 mg/ml) was diluted with 190 ul of phosphate buffered saline (PBS) to give a final Sandoz 58-035 solution of 20 μg/200 μl. Two hundred microliters of this solution containing 20 μg of Sandoz 58-035 was injected into each mouse through the tail vein.\nSandoz 58-035 was liposome formulated using a modified method of Jonas and co-workers (Jonas et al. J. Bio. Chem. 1989 264:4818-4825). […]\nTo determine cholesterol export in vivo, J774 cells were loaded with cholesterol and simultaneously incubated for 3 hours with 0.5 μCi/mL [^3H]-cholesterol, followed by an overnight equilibration period as described by Tam et al. (J. Lipid Res. 2002 43:1410-1420). […] Cholesterol efflux was determined by measuring the appearance of [^3H]-cholesterol in plasma by scintillation spectrometry. […]"}
{"smiles": "CCCCCCCCCC[Si](C)(C)CCC(=O)NC(Cc1ccc(C)cc1)c1ccccc1", "note": "(stereo not shown) [Sandoz 58-035]", "values": [{"measurement": "in vivo macrophage cholesterol export (result in words)", "result": "did not increase macrophage cholesterol export over the vehicle"}]}
